ChEMBL document CHEMBL3297705, “Discovery of 5,6,7,8-tetrahydropyrido[3,4-d]pyrimidine inhibitors of Erk2” (Bioorg Med Chem Lett, 2014)

What was measured:
[1] = target: T1, Mitogen-activated protein kinase 1 (Homo sapiens, UniProt P28482)
Description: Inhibition of ERK2 in human HepG2 cells assessed as P90RSK phosphorylation at Ser380 after 1.5 hrs by fluorescence assay

[2] = target: Cyclin-dependent kinase 2 (Homo sapiens, UniProt P24941)
Description: Inhibition of Cdk2 (unknown origin)

[3] = Plasma protein binding in human; assay type: ADME, cell-free; conditions: read-out: PPB (converted)
[4] = target: T1, Mitogen-activated protein kinase 1; remark: listed apart in the source
Description: Inhibition of human recombinant N-terminal 6-His-tagged ERK2 expressed in Escherichia coli using S/T17 as substrate after 30 mins by spectrophotometry

T1 sequence (P28482 whole entry): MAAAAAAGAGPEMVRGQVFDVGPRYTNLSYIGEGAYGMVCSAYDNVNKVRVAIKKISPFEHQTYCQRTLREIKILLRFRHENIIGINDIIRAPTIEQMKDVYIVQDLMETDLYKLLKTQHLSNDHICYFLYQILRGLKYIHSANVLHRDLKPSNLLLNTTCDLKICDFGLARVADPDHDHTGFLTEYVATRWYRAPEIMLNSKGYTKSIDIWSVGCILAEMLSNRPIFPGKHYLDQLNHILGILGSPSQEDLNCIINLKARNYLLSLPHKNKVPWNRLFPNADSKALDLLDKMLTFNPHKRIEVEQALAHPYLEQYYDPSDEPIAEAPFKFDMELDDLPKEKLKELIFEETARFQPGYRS

Structure (SMILES) | IC50 [1] [nM] | IC50 [2] [nM] | fraction unbound [3] | IC50 [4] [nM]
Cc1cc(Nc2ncc3c(n2)CN(C(=O)N[C@H](C)c2ccc(Cl)c(Cl)c2)CC3)ccn1 | 23 | 9 | 0.006 | 1
C[C@@H](NC(=O)N1CCc2cnc(NC3CCOCC3)nc2C1)c1ccc(Cl)c(F)c1 | 12 | 13 | 0.095 | 1
CC[C@@H](NC(=O)N1CCc2cnc(N[C@@H](C)CO)nc2C1)c1ccc(F)c(F)c1 | 51 | 13 | 0.226 | 3
CC(C)Nc1ncc2c(n1)CN(C(=O)N[C@H](CO)c1ccc(F)c(Cl)c1)CC2 | 160 |  |  | 4
Cc1cc(Nc2ncc3c(n2)CN(C(=O)N[C@H](CO)c2ccc(F)c(Cl)c2)CC3)ccn1 | 445 |  |  | 7
CC(C)Nc1ncc2c(n1)CN(C(=O)NCc1ccc(Cl)cc1)CC2 | 2140 |  |  | 91
C[C@@H](CO)Nc1ncc2c(n1)CN(C(=O)N[C@H](C)c1ccc(C(F)(F)F)c(F)c1)CC2 | 110 | 821 | 0.013 | 3
CC(C)Nc1ncc2c(n1)CN(C(=O)NCc1ccc(Cl)c(F)c1)CC2 | 1630 |  |  | 81
C[C@@H](NC(=O)N1CCc2cnc(NC3CCOCC3)nc2C1)c1ccc2cc[nH]c2c1 | 21 | 69 |  | 2
CC[C@@H](NC(=O)N1CCc2cnc(N[C@@H](C)CO)nc2C1)c1ccc(OC)c(Cl)c1 | 14 | 71 | 0.081 | 2
CC[C@@H](NC(=O)N1CCc2cnc(NC3CCOCC3)nc2C1)c1ccc(C#N)c(Cl)c1 | 4 | 2 |  | 1
CC(C)Nc1ncc2c(n1)CN(C(=O)NCc1ccccc1)CC2 | 4380 |  |  | 283
C[C@@H](NC(=O)N1CCc2cnc(N[C@H]3CCO[C@@H](CO)C3)nc2C1)c1ccc(Cl)c(Cl)c1 | 7 | 2 |  | 2
CC(C)Nc1ncc2c(n1)CN(C(=O)NCc1ccc(F)cc1)CC2 | 6620 |  |  | 69
C[C@@H](CO)Nc1ncc2c(n1)CN(C(=O)N[C@H](CO)c1ccc(F)c(Cl)c1)CC2 | 473 |  |  | 3
CC[C@@H](NC(=O)N1CCc2cnc(N[C@@H](C)CO)nc2C1)c1ccc(Cl)c(Cl)c1 | 23 | 12 | 0.025 | 2
C[C@@H](NC(=O)N1CCc2cnc(Nc3cnn(C)c3)nc2C1)c1ccc(Cl)c(Cl)c1 | 35 | 4 | 0.018 | 1
Cc1noc(C)c1Nc1ncc2c(n1)CN(C(=O)N[C@H](CO)c1ccc(F)c(Cl)c1)CC2 | 13200 |  |  | 
CC(C)(C)Nc1ncc2c(n1)CN(C(=O)N[C@H](CO)c1ccc(F)c(Cl)c1)CC2 | 3010 |  |  | 41
C[C@@H](NC(=O)N1CCc2cnc(Nc3ccnn3C)nc2C1)c1ccc(Cl)c(Cl)c1 | 43 | 23 | 0.01 | 1
CC(C)Nc1ncc2c(n1)CN(C(=O)N[C@H](CNS(C)(=O)=O)c1ccc(F)c(Cl)c1)CC2 | 917 |  |  | 7
CNc1ncc2c(n1)CN(C(=O)N[C@H](CO)c1ccc(F)c(Cl)c1)CC2 | 2260 |  |  | 43
